Assay results as given in ChEMBL document CHEMBL6153096, “Development of Potent and Selective CK1α Molecular Glue Degraders” (J Med Chem, 2025).
The source made the active and inactive calls. The calls are words filed in the database; no cut-off is given here.

Tests used:
[1] = biological target: T1, Cereblon/Casein kinase I alpha (Homo sapiens, UniProt P48729+Q96SW2); test: Molecular glue activity at CRBN/HiBiT-tagged CK1-alpha in human Jurkat cells assessed as induction of CK1-alpha degradation incubated for 5 hrs by Nano-Glo HiBiT assay; assay type: cell-based
[2] = biological target: T1, Cereblon/Casein kinase I alpha; test: Molecular glue activity at CRBN/CK1-alpha in human MOLT-4 cells with CRBN-/- assessed as induction of CK1-alpha degradation at 1 uM incubated for 5 hrs by quantitative mass spectrometry based proteomic analysis; assay type: cell-based
Target sequence in this assay (P48729 2-337 limits assumed): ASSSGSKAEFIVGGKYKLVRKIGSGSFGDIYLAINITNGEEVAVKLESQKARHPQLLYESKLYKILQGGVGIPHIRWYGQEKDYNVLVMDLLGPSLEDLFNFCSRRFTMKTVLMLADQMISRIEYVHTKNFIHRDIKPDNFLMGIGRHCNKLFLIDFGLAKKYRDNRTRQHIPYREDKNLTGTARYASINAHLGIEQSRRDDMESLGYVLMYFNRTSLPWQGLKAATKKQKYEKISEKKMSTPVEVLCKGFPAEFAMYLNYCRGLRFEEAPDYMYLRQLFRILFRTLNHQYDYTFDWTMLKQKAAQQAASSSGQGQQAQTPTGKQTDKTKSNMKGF
Target sequence in this assay (Q96SW2 whole entry partner): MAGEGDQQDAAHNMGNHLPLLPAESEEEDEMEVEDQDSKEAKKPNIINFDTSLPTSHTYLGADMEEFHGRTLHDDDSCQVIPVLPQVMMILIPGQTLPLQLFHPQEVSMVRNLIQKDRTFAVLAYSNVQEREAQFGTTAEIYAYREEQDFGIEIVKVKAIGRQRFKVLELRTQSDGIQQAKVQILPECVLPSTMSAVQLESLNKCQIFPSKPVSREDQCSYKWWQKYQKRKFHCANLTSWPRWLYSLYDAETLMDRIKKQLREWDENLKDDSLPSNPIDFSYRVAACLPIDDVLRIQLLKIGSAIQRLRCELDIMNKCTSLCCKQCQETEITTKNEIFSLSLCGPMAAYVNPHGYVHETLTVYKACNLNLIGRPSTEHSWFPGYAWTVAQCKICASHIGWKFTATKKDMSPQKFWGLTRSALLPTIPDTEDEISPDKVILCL

[3] = biological target: T1, Cereblon/Casein kinase I alpha; test: Molecular glue activity at CRBN/CK1-alpha in human MOLM-13 cells assessed as increase in p21 level at 0.1 to 1 uM incubated for 24 hrs by Western blot analysis; assay type: cell-based; conditions: dose 0.1-1 µM
Target sequence in this assay (P48729 2-337 limits assumed): as the sequence (P48729 2-337 limits assumed) above
Target sequence in this assay (Q96SW2 whole entry partner): as the sequence (Q96SW2 whole entry partner) above

[4] = biological target: T1, Cereblon/Casein kinase I alpha; test: Molecular glue activity at CRBN/CK1-alpha in human MOLM-13 cells assessed as increase in p53 level at 0.1 to 1 uM incubated for 24 hrs by Western blot analysis; assay type: cell-based; conditions: dose 0.1-1 µM
Target sequence in this assay (P48729 2-337 limits assumed): as the sequence (P48729 2-337 limits assumed) above
Target sequence in this assay (Q96SW2 whole entry partner): as the sequence (Q96SW2 whole entry partner) above

[5] = biological target: T1, Cereblon/Casein kinase I alpha; test: Molecular glue activity at CRBN/CK1-alpha in human MOLM-13 cells assessed as increase in MDM2 level at 0.1 to 1 uM incubated for 24 hrs by Western blot analysis; assay type: cell-based; conditions: dose 0.1-1 µM
Target sequence in this assay (P48729 2-337 limits assumed): as the sequence (P48729 2-337 limits assumed) above
Target sequence in this assay (Q96SW2 whole entry partner): as the sequence (Q96SW2 whole entry partner) above

[6] = biological target: T1, Cereblon/Casein kinase I alpha; test: Molecular glue activity at CRBN/CK1-alpha in human MOLM-14 cells assessed as increase in p21 level at 0.1 to 1 uM incubated for 24 hrs by Western blot analysis; assay type: cell-based; conditions: dose 0.1-1 µM
Target sequence in this assay (P48729 2-337 limits assumed): as the sequence (P48729 2-337 limits assumed) above
Target sequence in this assay (Q96SW2 whole entry partner): as the sequence (Q96SW2 whole entry partner) above

[7] = biological target: T1, Cereblon/Casein kinase I alpha; test: Molecular glue activity at CRBN/CK1-alpha in human MOLM-14 cells assessed as increase in p53 level at 0.1 to 1 uM incubated for 24 hrs by Western blot analysis; assay type: cell-based; conditions: dose 0.1-1 µM
Target sequence in this assay (P48729 2-337 limits assumed): as the sequence (P48729 2-337 limits assumed) above
Target sequence in this assay (Q96SW2 whole entry partner): as the sequence (Q96SW2 whole entry partner) above

[8] = biological target: T1, Cereblon/Casein kinase I alpha; test: Molecular glue activity at CRBN/CK1-alpha in human MOLM-14 cells assessed as increase in MDM2 level at 0.1 to 1 uM incubated for 24 hrs by Western blot analysis; assay type: cell-based; conditions: dose 0.1-1 µM
[9] = Metabolic stability in human liver microsomes assessed as half life; assay type: ADME, Microsome
[10] = Metabolic stability in mouse liver microsomes assessed as half life; assay type: ADME, Microsome; conditions: for t1/2: microsomes
[11] = Metabolic stability in human liver microsomes assessed as intrinsic clearance; assay type: ADME, Microsome
[12] = Metabolic stability in mouse liver microsomes assessed as intrinsic clearance; assay type: ADME, Microsome
MOLM-13 = test: Antiproliferative activity against human MOLM-13 cells incubated for 72 hrs by CellTiter-Glo Luminescent Cell Viability Assay; assay type: functional, cell-based; conditions: MOLM-13, 72 h
MOLM-14 [13] = test: Antiproliferative activity against human MOLM-14 cells incubated for 72 hrs by CellTiter-Glo Luminescent Cell Viability Assay; assay type: functional, cell-based
MOLM-14 [14] = test: Antiproliferative activity against human MOLM-14 cells with CRBN-/- incubated for 72 hrs by CellTiter-Glo Luminescent Cell Viability Assay; assay type: functional, cell-based
[15] = biological target: T1, Cereblon/Casein kinase I alpha; test: Molecular glue activity at CRBN/CK1-alpha in human MOLM-13 cells assessed as induction of CK1-alpha degradation at 1 uM incubated for 5 hrs by Western blot analysis; assay type: cell-based
[16] = biological target: T1, Cereblon/Casein kinase I alpha; test: Molecular glue activity at CRBN/CK1-alpha in human MOLM-14 cells assessed as induction of CK1-alpha degradation at 1 uM incubated for 5 hrs by Western blot analysis; assay type: cell-based
MOLT-4 [17] = test: Induction of GSPT1 degradation in human MOLT-4 cells at 1 uM incubated for 5 hrs by quantitative mass spectrometry based proteomic analysis; assay type: cell-based
MOLT-4 [18] = test: Induction of WEE1 degradation in human MOLT-4 cells at 1 uM incubated for 5 hrs by quantitative mass spectrometry based proteomic analysis; assay type: cell-based
MOLT-4 [19] = test: Induction of IKZF1 degradation in human MOLT-4 cells at 1 uM incubated for 5 hrs by quantitative mass spectrometry based proteomic analysis; assay type: cell-based
[20] = biological target: Zinc finger protein Aiolos (Homo sapiens) (UniProt Q9UKT9); test: Induction of IKZF3 degradation in human MOLT-4 cells at 1 uM incubated for 5 hrs by quantitative mass spectrometry based proteomic analysis; assay type: cell-based
[21] = biological target: T1, Cereblon/Casein kinase I alpha; test: Molecular glue activity at CRBN/CK1-alpha in human MOLT-4 cells assessed as induction of CK1-alpha degradation at 1 uM incubated for <3 hrs by Western blot analysis; assay type: cell-based
[22] = biological target: Zinc finger protein Helios (Homo sapiens) (UniProt Q9UKS7); test: Induction of IKZF2 degradation in human MOLT-4 cells at 1 uM incubated for 5 hrs by quantitative mass spectrometry based proteomic analysis; assay type: cell-based
[23] = Induction of HiBiT-tagged WEE1 degradation in human Jurkat cells incubated for 5 hrs by Nano-Glo HiBiT assay; assay type: cell-based
Jurkat = test: Induction of HiBiT-tagged WEE1 degradation in human Jurkat cells incubated for 5 hrs by Nano-Glo HiBiT assay relative to control; assay type: cell-based

Chain of Zinc finger protein Aiolos (Homo sapiens) (Q9UKT9 whole entry): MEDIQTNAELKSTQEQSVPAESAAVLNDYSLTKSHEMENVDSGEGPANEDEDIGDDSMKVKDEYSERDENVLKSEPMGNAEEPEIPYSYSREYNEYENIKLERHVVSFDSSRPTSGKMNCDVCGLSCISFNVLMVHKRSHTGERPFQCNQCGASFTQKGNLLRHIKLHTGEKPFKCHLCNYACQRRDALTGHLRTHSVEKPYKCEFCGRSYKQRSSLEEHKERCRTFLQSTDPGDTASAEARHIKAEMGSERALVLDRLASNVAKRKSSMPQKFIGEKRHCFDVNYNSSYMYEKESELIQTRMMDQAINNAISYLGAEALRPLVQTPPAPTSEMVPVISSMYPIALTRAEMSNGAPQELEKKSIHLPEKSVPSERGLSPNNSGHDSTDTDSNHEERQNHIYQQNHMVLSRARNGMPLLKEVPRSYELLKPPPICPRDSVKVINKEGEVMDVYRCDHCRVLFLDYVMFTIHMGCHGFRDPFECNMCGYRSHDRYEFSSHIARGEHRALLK
Chain of Zinc finger protein Helios (Homo sapiens) (Q9UKS7 whole entry): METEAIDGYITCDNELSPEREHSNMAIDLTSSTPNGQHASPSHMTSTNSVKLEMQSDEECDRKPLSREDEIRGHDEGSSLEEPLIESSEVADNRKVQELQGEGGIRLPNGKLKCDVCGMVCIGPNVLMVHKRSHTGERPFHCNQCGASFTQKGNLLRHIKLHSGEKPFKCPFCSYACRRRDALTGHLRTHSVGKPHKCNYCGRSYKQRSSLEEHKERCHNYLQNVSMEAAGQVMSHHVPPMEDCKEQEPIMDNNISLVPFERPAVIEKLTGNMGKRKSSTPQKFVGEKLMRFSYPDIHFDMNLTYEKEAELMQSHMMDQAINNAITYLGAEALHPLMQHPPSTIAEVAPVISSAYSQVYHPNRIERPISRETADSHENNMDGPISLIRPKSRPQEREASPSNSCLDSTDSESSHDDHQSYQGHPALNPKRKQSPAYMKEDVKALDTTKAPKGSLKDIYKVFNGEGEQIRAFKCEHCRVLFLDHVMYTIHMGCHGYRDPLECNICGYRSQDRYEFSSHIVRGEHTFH

O=C1CCC(N2Cc3cc(NC(=O)c4cn5cc(Cl)ccc5n4)ccc3C2=O)C(=O)N1 (stereo unspecified)
DC50 [1]: 1.3 nM
EC90 [1]: 14.9 nM

O=C1CCC(N2Cc3cc(Nc4noc5ccccc45)ccc3C2=O)C(=O)N1 (stereo unspecified)
Activity [2]: Not active; Compound Induced Ck1-Alpha Degradation In A Crbn Dependent Manner
Activity [3]: Active
Activity [4]: Active
Activity [5]: Active
Activity [6]: Active
Activity [7]: Active
Activity [8]: Active

O=C1CCC(N2Cc3cc(NC(=O)c4cnc5ccccc5n4)ccc3C2=O)C(=O)N1 (stereo unspecified)
DC50 [1]: 8.8 nM

CCN(CC)CCNC(=O)c1c(C)[nH]c(/C=C2\C(=O)Nc3ccc(F)cc32)c1C [SUNITINIB]
t1/2 [9]: 39.4 min
half-life ([10]; liver microsomes): 20.9 min
CLH [11]: 18 µL/min/mg
CLH [12]: 33 µL/min/mg

O=C1CCC(N2Cc3ccc(NC(=O)c4cn5ccccc5n4)cc3C2=O)C(=O)N1 (stereo unspecified)
DC50 [1]: > 10000 nM

O=C1CCC(N2Cc3cc(NC(=O)c4nc5ccccn5n4)ccc3C2=O)C(=O)N1 (stereo unspecified)
DC50 [1]: 61 nM

O=C1CCC(N2Cc3cc(NC(=O)c4cc5ccccn5n4)ccc3C2=O)C(=O)N1 (stereo unspecified)
DC50 [1]: 4.7 nM
IC50 (MOLM-13): 14 nM
Activity (MOLM-14 [13]): Active
Activity (MOLM-14 [14]): inactive
Activity [15]: Active
Activity [16]: Active
t1/2 [9]: 65.4 min
t1/2 [10]: 6.3 min
CLH [11]: 11 µL/min/mg
CLH [12]: 111 µL/min/mg

O=C1CCC(N2Cc3cc(-c4cnc5ccccc5c4)ccc3C2=O)C(=O)N1 (stereo unspecified)
Activity (MOLT-4 [17]): inactive
Activity (MOLT-4 [18]): inactive
DC50 [1]: 46.8 nM
Activity (MOLT-4 [19]): inactive
Activity [20]: inactive
Activity [2]: Not active; Compound Induced Ck1-Alpha Degradation In A Crbn Dependent Manner
Activity [21]: Active
IC50 (MOLM-13): 2400 nM
Activity (MOLM-14 [13]): Active
Activity (MOLM-14 [14]): inactive
Activity [15]: Active
Activity [16]: Active
Activity [3]: Active
Activity [4]: Active
Activity [5]: Active
Activity [6]: Active
Activity [7]: Active
Activity [8]: Active
t1/2 [9]: > 120 min
t1/2 [10]: 65.6 min
CLH [11]: < 6 µL/min/mg
CLH [12]: 11 µL/min/mg

O=C1CCC(N2Cc3cc(-c4cc5ccccc5cn4)ccc3C2=O)C(=O)N1 (stereo unspecified)
Activity (MOLT-4 [17]): Active
Activity (MOLT-4 [18]): Active
Activity [22]: Active
DC50 [1]: 10 nM
DC50 [23]: 43 µM
Emax (Jurkat): 80%
Activity [2]: Not active; Compound Induced Ck1-Alpha Degradation In A Crbn Dependent Manner

COc1ccc2nc(C(=O)Nc3ccc4c(c3)CN(C3CCC(=O)NC3=O)C4=O)cn2c1 (stereo unspecified)
DC50 [1]: 1.1 nM
EC90 [1]: 16.2 nM
IC50 (MOLM-13): 23 nM
Activity (MOLM-14 [13]): Active
Activity (MOLM-14 [14]): inactive
Activity [15]: Active
Activity [16]: Active
t1/2 [9]: 33.2 min
t1/2 [10]: > 120 min
CLH [11]: 21 µL/min/mg
CLH [12]: < 6 µL/min/mg

O=C1CCC(N2Cc3cc(NC(=O)c4cc5ccccn5c4)ccc3C2=O)C(=O)N1 (stereo unspecified)
DC50 [1]: 87 nM

O=C1CCC(N2Cc3cc(NC(=O)c4cnc5ccccn45)ccc3C2=O)C(=O)N1 (stereo unspecified)
DC50 [1]: 82 nM

Cc1cccc2nc(C(=O)Nc3ccc4c(c3)CN(C3CCC(=O)NC3=O)C4=O)cn12 (stereo unspecified)
DC50 [1]: 3.3 nM
EC90 [1]: 35.3 nM

O=C1CCC(N2Cc3cc(NC(=O)c4cnc5ccccc5c4)ccc3C2=O)C(=O)N1 (stereo unspecified)
Activity (MOLT-4 [17]): inactive
Activity (MOLT-4 [18]): inactive
DC50 [1]: 79 nM
Activity (MOLT-4 [19]): inactive
Activity [20]: inactive
t1/2 [9]: 23.4 min
t1/2 [10]: > 120 min
CLH [11]: 30 µL/min/mg
CLH [12]: < 6 µL/min/mg

O=C1CCC(N2C(=O)c3ccc(NC(=O)c4cn5ccccc5n4)cc3C2=O)C(=O)N1 (stereo unspecified)
DC50 [1]: 88 nM

O=C1CCC(N2Cc3c(CNC(=O)c4cnc5ccccc5c4)cccc3C2=O)C(=O)N1 (stereo unspecified)
DC50 [1]: 138 nM
